Values quoted from earlier work as cited in patent publication US20220095612A1, “MICRONUTRIENT COMPOSITIONS AND SYSTEMS AND METHODS OF USING SAME” (Nanochem Solutions, Inc., priority 2020, published 2022).

pH at which the alpha carboxyl deprotonates (alpha carboxyl group): about 2.09 | pH at which the carboxyl side group deprotonates (carboxyl side group): about 3.86
SMILES: N[C@@H](CC(=O)O)C(=O)O [L-aspartic acid]
